{
  "source": "patent US20040102454A1",
  "about": "“Phenylahistin and the phenylahistin analogs, a new class of anti-tumor compounds” (priority 1998, published 2004)",
  "assay_in_all_cases": "HCC panel assay, sulforhodamine B",
  "type_in_all_cases": "cell-based",
  "key": {"MKN28": {"tested_on": "MKN28", "details": "MKN28, Stomach, (−)-PLH content 24.1%", "protocol": "(§1) The antitumor activity of PLH was evaluated by the Human Cancer Cell Line Panel (HCC panel) assay, see Yamori T., Jap. J Cancer Chemother., (1997), 24, 129-35. This HCC panel consists of 38 tumor cell lines including 7 lung cancer, 6 stomach, 6 colon, 5 ovary, 6 central nerve system, 5 breast, 2 kidney and 1 melanoma cell lines. Each tumor cell was seeded in 96-well tissue culture plates and incubated overnight. Various concentrations (5 doses; final 10^−4, 10^−5, 10^−6, 10^−7 and 10^−8 M) of PLH were added, and the cells were incubated for 48 hours. […] All mice were obtained from Japan SLC (Shizuoka, Japan), P388 leukemia cells were obtained from Dainippon Pharmaceuticals Inc. (Osaka, Japan), Lewis Lung Carcinoma from Riken Cell Bank (Tsukuba, Japan), and Colon 26 cells from the National Cancer Center, Japan (Tokyo, Japan)."}, "SNB-78": {"tested_on": "SNB-78", "details": "SNB-78, CNS, (−)-PLH content 24.1%", "protocol": "as §1"}, "WiDr": {"tested_on": "WiDr", "details": "Colon, (−)-PLH content 24.1%", "protocol": "as §1"}, "HBC-4": {"tested_on": "HBC-4", "details": "HBC-4, Breast, (−)-PLH content 24.1%", "protocol": "as §1"}, "DMS114": {"tested_on": "DMS114", "details": "DMS114, Lung, (−)-PLH content 24.1%", "protocol": "as §1"}, "DMS273": {"tested_on": "DMS273", "details": "DMS273, Lung, (−)-PLH content 24.1%", "protocol": "as §1"}, "U251": {"tested_on": "U251", "details": "U251, CNS, (−)-PLH content 24.1%", "protocol": "as §1"}, "OVCAR-4": {"tested_on": "OVCAR-4", "details": "OVCAR-4, Ovary, (−)-PLH content 24.1%", "protocol": "as §1"}, "HCT-15": {"tested_on": "HCT-15", "details": "HCT-15, Colon, (−)-PLH content 24.1%", "protocol": "as §1"}, "MKN74": {"tested_on": "MKN74", "details": "MKN74, Stomach, (−)-PLH content 24.1%", "protocol": "as §1"}, "MKN45": {"tested_on": "MKN45", "details": "MKN45, Stomach, (−)-PLH content 24.1%", "protocol": "as §1"}, "RXF-6311": {"tested_on": "RXF-6311", "details": "RXF-6311, Renal, (−)-PLH content 24.1%", "protocol": "as §1"}, "NCI-H522": {"tested_on": "NCI-H522", "details": "NCI-H522, Lung, (−)-PLH content 24.1%", "protocol": "as §1"}, "HCT-116": {"tested_on": "HCT-116", "details": "HCT-116, Colon, (−)-PLH content 24.1%", "protocol": "as §1"}, "MCF-7": {"tested_on": "MCF-7", "details": "MCF-7, Breast, (−)-PLH content 24.1%", "protocol": "as §1"}, "KM-12": {"tested_on": "KM-12", "details": "KM-12, Colon, (−)-PLH content 24.1%", "protocol": "as §1"}, "SF-539": {"tested_on": "SF-539", "details": "SF-539, CNS, (−)-PLH content 24.1%", "protocol": "as §1"}, "NCI-H23": {"tested_on": "NCI-H23", "details": "NCI-H23, Lung, (−)-PLH content 24.1%", "protocol": "as §1"}, "LOX-IMVI": {"tested_on": "LOX-IMVI", "details": "Melanoma, (−)-PLH content 24.1%", "protocol": "as §1"}, "ACHN": {"tested_on": "ACHN", "details": "Renal, (−)-PLH content 24.1%", "protocol": "as §1"}, "[1]": {"details": "Homo sapiens, read-out: GL50 (the source's name)"}, "[2]": {"details": "Homo sapiens, read-out: LC50 (the source's name)"}},
  "note": "pIC50: −log10 of the molar value.",
  "data": [
    {"smiles": "C=CC(C)(C)c1[nH]cnc1/C=C1\\NC(=O)[C@H](Cc2ccccc2)NC1=O", "note": "(racemic) [PLH, phenylahistin]", "values": [
      {"measurement": "pIC50", "setting": "MKN28; Homo sapiens, MKN-28, read-out: GL50 (the source's name)", "value": 6.38},
      {"measurement": "CC50", "setting": "MKN28; Homo sapiens, MKN-28, read-out: LC50 (the source's name)", "value": "> 100", "unit": "µM"},
      {"measurement": "TGI", "setting": "MKN28", "value": ">100", "unit": "µM"},
      {"measurement": "pIC50", "setting": "SNB-78; [1]", "value": 5.89},
      {"measurement": "CC50", "setting": "SNB-78; [2]", "value": "> 100", "unit": "µM"},
      {"measurement": "TGI", "setting": "SNB-78", "value": ">100", "unit": "µM"},
      {"measurement": "TGI", "setting": "WiDr", "value": 790, "unit": "nM"},
      {"measurement": "pIC50", "setting": "WiDr; [1]", "value": 6.57},
      {"measurement": "CC50", "setting": "WiDr; [2]", "value": "> 100", "unit": "µM"},
      {"measurement": "TGI", "setting": "HBC-4", "value": ">100", "unit": "µM"},
      {"measurement": "pIC50", "setting": "HBC-4; Homo sapiens, HBC4, read-out: GL50 (the source's name)", "value": 6.34},
      {"measurement": "CC50", "setting": "HBC-4; Homo sapiens, HBC4, read-out: LC50 (the source's name)", "value": "> 100", "unit": "µM"},
      {"measurement": "TGI", "setting": "DMS114", "value": 2.4, "unit": "µM"},
      {"measurement": "pIC50", "setting": "DMS114; Homo sapiens, DMS-114, read-out: GL50 (the source's name)", "value": 6.48},
      {"measurement": "CC50", "setting": "DMS114; Homo sapiens, DMS-114, read-out: LC50 (the source's name)", "value": "> 100", "unit": "µM"},
      {"measurement": "TGI", "setting": "DMS273", "value": ">100", "unit": "µM"},
      {"measurement": "pIC50", "setting": "DMS273; Homo sapiens, DMS-273, read-out: GL50 (the source's name)", "value": 6.54},
      {"measurement": "CC50", "setting": "DMS273; Homo sapiens, DMS-273, read-out: LC50 (the source's name)", "value": "> 100", "unit": "µM"},
      {"measurement": "pIC50", "setting": "U251; Homo sapiens, U-251, read-out: GL50 (the source's name)", "value": 6.36},
      {"measurement": "CC50", "setting": "U251; Homo sapiens, U-251, read-out: LC50 (the source's name)", "value": "> 100", "unit": "µM"},
      {"measurement": "TGI", "setting": "U251", "value": 10, "unit": "µM"},
      {"measurement": "pIC50", "setting": "OVCAR-4; [1]", "value": 4.40},
      {"measurement": "CC50", "setting": "OVCAR-4; [2]", "value": "> 100", "unit": "µM"},
      {"measurement": "TGI", "setting": "OVCAR-4", "value": ">100", "unit": "µM"},
      {"measurement": "TGI", "setting": "HCT-15", "value": ">100", "unit": "µM"},
      {"measurement": "pIC50", "setting": "HCT-15; [1]", "value": 6.31},
      {"measurement": "CC50", "setting": "HCT-15; [2]", "value": "> 100", "unit": "µM"},
      {"measurement": "pIC50", "setting": "MKN74; Homo sapiens, MKN-74, read-out: GL50 (the source's name)", "value": 6.32},
      {"measurement": "CC50", "setting": "MKN74; Homo sapiens, MKN-74, read-out: LC50 (the source's name)", "value": "> 100", "unit": "µM"},
      {"measurement": "TGI", "setting": "MKN74", "value": ">100", "unit": "µM"},
      {"measurement": "pIC50", "setting": "MKN45; Homo sapiens, MKN-45, read-out: GL50 (the source's name)", "value": 5.82},
      {"measurement": "CC50", "setting": "MKN45; Homo sapiens, MKN-45, read-out: LC50 (the source's name)", "value": "> 100", "unit": "µM"},
      {"measurement": "TGI", "setting": "MKN45", "value": ">100", "unit": "µM"},
      {"measurement": "pIC50", "setting": "RXF-6311; [1]", "value": 5.72},
      {"measurement": "CC50", "setting": "RXF-6311; [2]", "value": "> 100", "unit": "µM"},
      {"measurement": "TGI", "setting": "RXF-6311", "value": ">100", "unit": "µM"},
      {"measurement": "pIC50", "setting": "NCI-H522; [1]", "value": 6.60},
      {"measurement": "CC50", "setting": "NCI-H522; [2]", "value": "> 100", "unit": "µM"},
      {"measurement": "TGI", "setting": "NCI-H522", "value": 810, "unit": "nM"},
      {"measurement": "TGI", "setting": "HCT-116", "value": ">100", "unit": "µM"},
      {"measurement": "pIC50", "setting": "HCT-116; [1]", "value": 6.32},
      {"measurement": "CC50", "setting": "HCT-116; [2]", "value": "> 100", "unit": "µM"},
      {"measurement": "pIC50", "setting": "MCF-7; Homo sapiens, MCF7, read-out: GL50 (the source's name)", "value": 6.33},
      {"measurement": "CC50", "setting": "MCF-7; Homo sapiens, MCF7, read-out: LC50 (the source's name)", "value": "> 100", "unit": "µM"},
      {"measurement": "TGI", "setting": "MCF-7", "value": ">100", "unit": "µM"},
      {"measurement": "pIC50", "setting": "KM-12; Homo sapiens, KM12, read-out: GL50 (the source's name)", "value": 6.42},
      {"measurement": "CC50", "setting": "KM-12; Homo sapiens, KM12, read-out: LC50 (the source's name)", "value": "> 100", "unit": "µM"},
      {"measurement": "TGI", "setting": "KM-12", "value": ">100", "unit": "µM"},
      {"measurement": "pIC50", "setting": "SF-539; [1]", "value": 6.64},
      {"measurement": "CC50", "setting": "SF-539; [2]", "value": 11, "unit": "µM"},
      {"measurement": "TGI", "setting": "SF-539", "value": 600, "unit": "nM"},
      {"measurement": "pIC50", "setting": "NCI-H23; [1]", "value": 6.04},
      {"measurement": "CC50", "setting": "NCI-H23; [2]", "value": "> 100", "unit": "µM"},
      {"measurement": "TGI", "setting": "NCI-H23", "value": 92, "unit": "µM"},
      {"measurement": "pIC50", "setting": "LOX-IMVI; [1]", "value": 5.89},
      {"measurement": "CC50", "setting": "LOX-IMVI; [2]", "value": "> 100", "unit": "µM"},
      {"measurement": "TGI", "setting": "LOX-IMVI", "value": ">100", "unit": "µM"},
      {"measurement": "pIC50", "setting": "ACHN; [1]", "value": 4.55},
      {"measurement": "CC50", "setting": "ACHN; [2]", "value": "> 100", "unit": "µM"},
      {"measurement": "TGI", "setting": "ACHN", "value": ">100", "unit": "µM"}
    ]}
  ]
}
